# Experimental data published in ChEMBL document CHEMBL1765054 (J Med Chem, 2011).
# Experiments:
# Format in all cases: ADME, organism-based
# Mus musculus = assay: Bioavailability in C57BL/6 mouse at 10 mg/kg; details: in vivo
# [1] = AUC in C57BL/6 mouse at 10 mg/kg, po; design: dose 10 mg/kg, route oral; details: plasma
# [2] = Cmax in C57BL/6 mouse at 10 mg/kg, po; design: dose 10 mg/kg, route oral; details: in vivo
# [3] = Cmax in C57BL/6 mouse at 1 mg/kg, iv; design: dose 1 mg/kg, route intravenous; details: in vivo
# [4] = Volume of distribution at steady state in C57BL/6 mouse at 1 mg/kg, iv; design: dose 1 mg/kg, route intravenous; details: in vivo, read-out: Vdss
# [5] = Tmax in C57BL/6 mouse at 10 mg/kg, po; design: dose 10 mg/kg, route oral; details: in vivo
SMILES,F (Mus musculus),AUC [1],Cmax [2],Cmax [3],Vd [4],Tmax [5]
Nc1ccc(-c2ccc3ncc4ccc(=O)n(-c5cccc(C(F)(F)F)c5)c4c3c2)cn1,51%,4310 ng·h/mL,3970 ng/mL,1540 ng/mL,,
O=c1ccc2cnc3ccc(-c4cn[nH]c4)cc3c2n1-c1ccc(F)c(C(F)(F)F)c1,19.2%,755 ng·h/mL,430 ng/mL,,2.42 L/kg,30 min
O=c1ccc2cnc3ccc(-c4cnc5[nH]ccc5c4)cc3c2n1-c1ccc(F)c(C(F)(F)F)c1,4.2%,352 ng·h/mL,98 ng/mL,1640 ng/mL,1.3 L/kg,60 min
Cc1cc(-n2c(=O)ccc3cnc4ccc(-c5cn[nH]c5)cc4c32)ccc1F,21.6%,2410 ng·h/mL,853 ng/mL,1040 ng/mL,1.16 L/kg,30 min
Cc1cc(-n2c(=O)ccc3cnc4ccc(-c5cnn(C)c5)cc4c32)ccc1F,28%,2070 ng·h/mL,1040 ng/mL,,1.08 L/kg,30 min
